Assay results reported in PubChem BioAssay (NCI).
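Test compounds were applied to cells in 96-well plates for 48 hours at 5 doses. At the GI50, growth is halved. The concentration for full growth arrest is given as TGI.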

What was measured:
Test in all cases: NCI tumour cell line growth inhibition, 48 h
MALME-3M melanoma = tested on: MALME-3M melanoma
HCC-2998 colon = tested on: HCC-2998 colon
786-0 renal = tested on: 786-0 renal
HT29 colon = tested on: HT29 colon
SN12C renal = tested on: SN12C renal
UO-31 renal = tested on: UO-31 renal
HCT-15 colon = tested on: HCT-15 colon
SNB-19 CNS = tested on: SNB-19 CNS
OVCAR-3 ovarian = tested on: OVCAR-3 ovarian
A498 renal = tested on: A498 renal

SMILES | GI50 (MALME-3M melanoma) | TGI (MALME-3M melanoma) | GI50 (HCC-2998 colon) | TGI (HCC-2998 colon) | GI50 (786-0 renal) | TGI (786-0 renal) | GI50 (HT29 colon) | TGI (HT29 colon) | GI50 (SN12C renal) | TGI (SN12C renal) | GI50 (UO-31 renal) | TGI (UO-31 renal) | GI50 (HCT-15 colon) | TGI (HCT-15 colon) | GI50 (SNB-19 CNS) | TGI (SNB-19 CNS) | GI50 (OVCAR-3 ovarian) | TGI (OVCAR-3 ovarian) | TGI (A498 renal) | GI50 (A498 renal)
CN(C)c1ccc([O][Bi]([Cl])[Cl])cc1 | > 100 µM | > 100 µM | 42.5 µM | > 100 µM | > 100 µM | > 100 µM | > 100 µM | > 100 µM | > 100 µM | > 100 µM | > 100 µM | > 100 µM | > 100 µM | > 100 µM | > 100 µM | > 100 µM | > 100 µM | > 100 µM | – | –
Oc1ccccc1C=NCc1ccco1 | – | > 100 µM | – | – | – | > 100 µM | – | > 100 µM | – | > 100 µM | – | > 100 µM | – | – | – | > 100 µM | – | > 100 µM | > 100 µM | –
CC(=O)[CH-]C(=O)c1ccccc1.CC(=O)[CH-]C(=O)c1ccccc1.CC1(C)C2CCC1(C)C([O-])C2.CC1(C)C2CCC1(C)C([O-])C2.[Ti+4] | 12.4 µM | 30.2 µM | 38.5 µM | > 100 µM | 25.9 µM | > 100 µM | 56.7 µM | > 100 µM | 27.9 µM | > 100 µM | 27.8 µM | 93.8 µM | 30.9 µM | > 100 µM | 25.8 µM | 97.7 µM | 59.3 µM | > 100 µM | – | –
CCOc1ccc(-c2nonc2NC(=O)c2cccc(C)c2)cc1OCC | > 100 µM | > 100 µM | > 100 µM | > 100 µM | 49.7 µM | > 100 µM | > 100 µM | > 100 µM | > 100 µM | > 100 µM | > 100 µM | > 100 µM | > 100 µM | > 100 µM | 34.9 µM | > 100 µM | > 100 µM | > 100 µM | – | –
O=C(CO)CC(=O)C(=O)Nc1ccccc1 | – | > 100 µM | – | > 100 µM | – | > 100 µM | – | > 100 µM | – | > 100 µM | – | > 100 µM | – | > 100 µM | – | > 100 µM | – | > 100 µM | – | –
O=c1nc2n(-c3ccc(Cl)cc3)c3ccc([N+](=O)[O-])cc3cc-2c(=O)[nH]1 | – | – | 22.3 µM | 54.3 µM | 17.9 µM | 37.1 µM | 20.2 µM | 43.1 µM | 14.5 µM | 44.5 µM | 20 µM | 53.6 µM | 8.84 µM | > 100 µM | 17.8 µM | 83.3 µM | 5.57 µM | 21.6 µM | > 100 µM | 33.2 µM
N#CC(C(=O)/C(=N/N)C(C#N)c1ccccc1)c1ccccc1 (centres undefined) | – | > 100 µM | – | > 100 µM | – | > 100 µM | – | > 100 µM | – | > 100 µM | – | > 100 µM | – | > 100 µM | – | > 100 µM | – | > 100 µM | – | –
COc1ccc(/C=C/C(=O)c2ccc(SC)cc2)cc1OC | – | – | 3.27 µM | 12.1 µM | 12.5 µM | 26.6 µM | 4.57 µM | 87.5 µM | 13 µM | 26.5 µM | 13.3 µM | 30.2 µM | 3.1 µM | 13.3 µM | 21 µM | 56.9 µM | 2.12 µM | 6.47 µM | – | –
O=C1c2cc3c(cc2-c2c1c1ccc(Cl)cc1c(=O)n2CCCNCCO)OCO3 | – | – | 1.15 µM | 2.46 µM | 0.119 µM | 0.278 µM | 0.135 µM | 2.02 µM | 1.08 µM | 2.81 µM | 0.0608 µM | 1.87 µM | 0.677 µM | 2.25 µM | – | – | 1.32 µM | 2.83 µM | 2.65 µM | 1.27 µM
CCC/C(=N/N=C(N)N)c1ccc(NC(=O)c2cc3cc(OC)ccc3[nH]2)cc1 | – | – | 15.1 µM | 39 µM | 3.61 µM | 29.2 µM | 4.49 µM | 20 µM | 14.1 µM | 33.7 µM | 17.9 µM | 38 µM | 14.5 µM | 36.1 µM | 13.6 µM | 35.8 µM | 6.36 µM | 29.7 µM | 54.2 µM | 19.9 µM
CC(=O)[CH-]C(=O)c1ccccc1.CC(=O)[CH-]C(=O)c1ccccc1.[Eu+3].[OH-].[OH3+] | – | – | > 100 µM | > 100 µM | > 100 µM | > 100 µM | > 100 µM | > 100 µM | > 100 µM | > 100 µM | – | – | > 100 µM | > 100 µM | > 100 µM | > 100 µM | – | – | > 100 µM | > 100 µM
CCc1c(C#N)c(S[C@@H](C(N)=O)c2ccccc2)nc(N(C)C)c1C#N | – | – | > 100 µM | > 100 µM | 21.1 µM | > 100 µM | > 100 µM | > 100 µM | 6.81 µM | > 100 µM | 2.95 µM | > 100 µM | > 100 µM | > 100 µM | 3.46 µM | 21.5 µM | > 100 µM | > 100 µM | 9.47 µM | 1.3 µM
Cc1ccc(/C=C2/SC(Nc3nc(-c4csc(NC5=NC(=O)/C(=C\c6ccc(C)cc6)S5)n4)cs3)=NC2=O)cc1 | – | – | 7.23 µM | 27.7 µM | 7.68 µM | 25.6 µM | 21.1 µM | > 50 µM | 5.54 µM | > 50 µM | 17.9 µM | > 50 µM | – | – | 12.6 µM | > 50 µM | 3.28 µM | 33.9 µM | – | –
Cc1ccc(-n2c3c(c4c(CN(C)C)c(O)ccc42)CCc2ccccc2C3=O)cc1 | – | – | 12.2 µM | 24.9 µM | 16.9 µM | 33.3 µM | > 100 µM | > 100 µM | 16.3 µM | 30.9 µM | 15.9 µM | 38.2 µM | 18.3 µM | 35.8 µM | > 100 µM | > 100 µM | 21.4 µM | 44.5 µM | 49.1 µM | 15.1 µM
O=C(Nc1cc(Cl)cc(Cl)c1)c1ccc(NC2=C(Cl)C(=O)N(Cc3ccc(Cl)cc3Cl)C2=O)cc1 | – | – | 15 µM | 36.9 µM | 3.41 µM | 35.1 µM | 49.3 µM | > 100 µM | 24.9 µM | 60.6 µM | 1.7 µM | 3.25 µM | 7.06 µM | 95.3 µM | 21.4 µM | 83.4 µM | 26.8 µM | 70.2 µM | – | –
O=C1C(Cl)=C(Nc2cccc(Cl)c2)C(=O)N1Cc1ccccc1Cl | – | – | – | – | 1.21 µM | 16.3 µM | 5.45 µM | > 100 µM | 2.32 µM | 8 µM | 1.47 µM | 5.01 µM | 3.96 µM | 38.2 µM | – | – | 2.14 µM | 16.1 µM | 24.8 µM | 11.8 µM
CCOc1ccccc1NC(=O)CC1SC(=Nc2ccc([N+](=O)[O-])cc2)NC1=O (centres undefined) | – | 51.1 µM | – | 36.7 µM | – | 33.5 µM | – | 50.6 µM | – | 53.9 µM | – | 37.7 µM | – | – | – | > 100 µM | – | 31.6 µM | – | –
Cc1cc(S(N)(=O)=O)c(S/C(CC(C)C)=N\Nc2ccc([N+](=O)[O-])cc2)cc1Cl | 12.5 µM | 25 µM | 2.46 µM | 6.27 µM | 7.15 µM | 19.8 µM | 3.88 µM | 15.3 µM | 2.76 µM | 9.88 µM | 11.1 µM | 23.6 µM | 5.22 µM | 31.2 µM | 13.2 µM | 27.3 µM | 3.19 µM | 7.07 µM | – | –
Fc1ccc2c(c1)c(-c1nc(-c3c[nH]c4ncccc34)cs1)cn2CCCN1CCCCC1 | – | – | 1.7 µM | 3.14 µM | 1.65 µM | 3.1 µM | 1.68 µM | 3.24 µM | 1.74 µM | 3.31 µM | 1.28 µM | 2.64 µM | – | – | – | – | 1.63 µM | 3.12 µM | 6.48 µM | 2.57 µM
COc1c(OC)c(OC)c2c(c1OC)c(=O)c1ccccc1n2C | – | – | – | > 100 µM | – | > 100 µM | – | > 100 µM | – | > 100 µM | – | > 100 µM | – | > 100 µM | – | > 100 µM | – | > 100 µM | > 100 µM | –
c1ccc2[nH]c(-c3ccc(NN=Nc4ccncc4)cc3)nc2c1 | – | – | – | – | 99.9 µM | > 100 µM | – | – | > 100 µM | > 100 µM | 43.6 µM | > 100 µM | 17.7 µM | > 100 µM | > 100 µM | > 100 µM | 15.1 µM | > 100 µM | – | –
N#C/C(=C/c1ccc[nH]1)P(=O)(O)O | – | > 100 µM | – | > 100 µM | – | > 100 µM | – | > 100 µM | – | > 100 µM | – | > 100 µM | – | > 100 µM | – | > 100 µM | – | > 100 µM | – | –
O=C1CCCCCCCC/C=C\CC(c2ccco2)O1 (centres undefined) | 26.3 µM | > 100 µM | > 100 µM | > 100 µM | 21.4 µM | 70.3 µM | 27 µM | 99.5 µM | 22.2 µM | 69.9 µM | 21.5 µM | 39.9 µM | 23.5 µM | 77.9 µM | 13.1 µM | 40.3 µM | 32.2 µM | > 100 µM | – | –
O=[N+]([O-])c1nccn1CC(O)CN1CC1 (centres undefined) | – | > 100 µM | – | – | – | > 100 µM | – | > 100 µM | – | > 100 µM | – | > 100 µM | – | > 100 µM | – | > 100 µM | – | > 100 µM | > 100 µM | –
